Earlier results in US20050049255A1, “Therapeutic combinations” (Pfizer Inc, priority 2003, published 2005).

System: dysmenorrhoea

Row | Compound | intensity of pain in women with dysmenorrhoea (double blind, randomised placebo controlled cross over trial, oral) | efficacy in the treatment of dysmenorrhoea (given intravenously, pilot study)
1 | COc1ccc(S(=O)(=O)N2c3ccc(Cl)cc3[C@](O)(c3ccccc3Cl)[C@@H]2C(=O)N2CCC[C@H]2C(N)=O)cc1OC [Relcovaptan] | dose dependently reduced the intensity of pain | 
2 | 1-deamino-2-D-Tyr (Oet)-4-Thr-8-Orn-oxytocin |  | effective in the treatment of dysmenorrhoea
